For data set [1], the system named is prostate cancer (PC3). Kind of data set: cells. The note with it: Homo sapiens, read-out: Cytotoxicity IC50, PC3.
Data set [2] deals with lung cancer H460. Kind of data set: cells. The conditions noted are these: Homo sapiens, NCI-H460, read-out: Cytotoxicity IC50, H460.
Data set [3] deals with lung cancer H1299. Kind of data set: cells. The conditions noted are these: Homo sapiens, NCI-H1299, read-out: Cytotoxicity IC50, H1299.
Data set [4] concerns CCRF-CEM human lymphoblastic leukemia cells. Kind of data set: cells. The conditions noted are these: read-out: Cytotoxicity IC50, CCRF-CEM.
The subject of data set [5] is Human colon carcinoma HCT-116 cells. Briefly: cells.
The test system is the same in data set [6]. The note with it: read-out: Cytotoxicity IC50, HCT-116; Table 1; SRB, 72-hr incubation.
In data set [7] the test system is Human mammary carcinoma (MX-1) tumor cells. Kind of data set: In vitro cytotoxicity, SRB assay, 72-hr incubation. The conditions noted are these: read-out: Cytotoxicity IC50, MX-1.
Data set [8] deals with CCRF-CEM/Taxol. Kind of data set: In vitro cytotoxicity, XTT assay, taxol-resistant subline. The conditions noted are these: read-out: Cytotoxicity IC50, CCRF-CEM/Taxol.
The test system of data set [9] is human mammary carcinoma MX-1 xenograft. Kind of data set: Antitumor therapeutic effect against MX-1 xenograft in nude mice. It counts as in vivo. The conditions noted are these: i.v. injection. As for the experimental part: Athymic nude mice bearing the nu/nu gene were obtained from NCI, Frederick, Md. and used for all human tumor xenografts. Male nude mice 6 weeks or older weighing 20-24 g or more were used. Compounds were administered via the tail vein for i.v. injection or infusion as described previously.^64 A typical formulation for chemotherapeutic studies for each drug was dissolved in DSMO to make a 25 mg/ml fresh solution, 0.4 ml of this solution was mixed with 0.3 ml of Tween 80, plus 1.3 ml to make 2 ml of 5 mg/ml solution. Bolus injection volume was 0.1-0.2 ml per mouse. Tumor volume was assessed by measuring length×width×height (or width) by using a caliper. For tumor-bearing nude mice during the course of the experiment, the body weight refers to total weight minus the weight of the tumor. All animal studies were conducted in accordance with the guidelines for the National Institute of Health Guide for the Care and Use of Animals and the protocol approved by the Institutional Animal Care and Use Committee.
The therapeutic effects of a drug against human tumor xenografts in nude mice, under the optimal therapeutic conditions but without any lethality due to drug toxicity, the following degrees of therapeutic effects are defined and calculated by the following formula: […]
where • T0 is the initial tumor size (in mm^3) at beginning of drug treatment; • Tc is tumor size of untreated control group on a given date; and • Tx is tumor size of the drug treated group on a given date.
[formula] • Tumor disappearance (complete remission or CR) is defined by the effect where • [Tx=0] for a period of time (in days) for a proportion of animals (NCR/N), where • N is the total number of animals in the group, and NCR is the number of mice in the group that achieved CR. • Tumor relapse is quantitatively calculated by • [The Day tumor relapsed (Drelp)—The Day CR achieved (DCR)] (Eq. 3) for a proportion of animals (Nrelp/N) where N is the total number of animals in the group, and Nrelp is the number of the mice in the group that relapsed. • The log cell kill (LCK) of the tumor tissue after a given chemotherapy that reached CR is estimated by: LCK=log [2^(Tumor remission in days/Tumor doubling time in days)] (Eq. 4)
Athymic nude mice bearing the nu/nu gene were used for human breast tumor MX-1 xenograft (FIGS. 3 and 4) and human brain glioma U87 GM xenograft (FIG. 5). Nude mice were obtained from National Cancer Institute, Frederick, Md. Male mice 6 weeks old or older weighing 22 g or more were used for experiments with subcutaneous tumor inoculation as described previously.^67 Drug was administrated via the tail vein by iv injection. Tumor volumes were assessed by measuring length×width×height (or width) by using caliper. Vehicle used was 20 μL DMSO in 180 μL saline. All animal studies were conducted in accordance with the guidelines of the U.S. National Institutes of Health Guide for the Care and Use of Animals and the protocol approved by the Institutional Animal Care and Use Committee.

For data set [10], the system named is biosynthesis of DNA, RNA and protein in MX-1 cells. Briefly: Inhibition of biosynthesis of DNA, RNA and protein (tritiated tracer incorporation). It counts as cell-based, human. The note with it: Homo sapiens, MX1, read-out: Protein synthesis inhibition.
Description: [^3H]Thymidine (1 uCi), [^3H]adenosine (1 μCi) and [^3H]leucine (2 μCi) were used as the tracers for incorporation into DNA, RNA and protein, respectively. […] Incubation was terminated at each time points as indicated.
[11] abbreviates: HCT-116, read-out: Cytotoxicity IC50, HCT-116.
Setting [12] is: dose and schedule per compound as in Table 3.

pIC50: −log10 of the molar value. Values joined by “and” are separate entries in the source; they are usually repeats but may differ in a detail not shown here. Equal values may be shown once. Where a name gives a salt, the structure may show the parent alone. Read-outs that look alike come from different tables or passages of the source.

Consider 20 compounds from patent US9193687B2 (priority 2007, dated 2015).

`O=C(CCN1CCOCC1)Nc1ccc(NC(=O)Nc2ccc(N(CCCl)CCCl)cc2)cc1` [BO-2074]: the pIC50 in data set [1] was 5.01; in data set [2] it was 5.40; in [3], 4.82; in data set [4] it was 5.97; in data set [5] (setting [11]), 5.15.
`CN(C)CC(=O)Nc1ccc(NC(=O)Nc2ccc(N(CCCl)CCCl)cc2)cc1` [BO-2095]: the pIC50 is 5.13 in data set [1]; 5.92 in [2]; 5.27 in [3]; 6.54 in data set [4]; 5.60 in data set [5] (setting [11]).
Regarding `O=C(CCN1CCCCC1)Nc1cccc(NC(=O)Nc2ccc(N(CCCl)CCCl)cc2)c1` [BO-2147, N-(3-(3-(4-(Bis(2-chloroethyl)amino)phenyl)ureido)-phenyl)-3-(piperidin-1-yl)-propanamide], the pIC50 was 5.24 in data set [1]; 5.10 in data set [2]; 5.33 in [3]; 6.41 in [4]; 5.45 in data set [5] (setting [11]).
Take `O=C(CN1CCC(N2CCCCC2)CC1)Nc1ccc(NC(=O)Nc2ccc(N(CCCl)CCCl)cc2)cc1` [BO-2117]: the pIC50 in data set [1] is 5.14; in [2], 4.83; in data set [3], 4.84; in [4], 5.94; in data set [5] (setting [11]), 5.37.
Consider `Cc1cccc2c(Nc3cc(COC(=O)Nc4ccc(N(CCCl)CCCl)cc4)cc(NC(=O)OCC(C)C)c3)c3ccccc3nc12` [BO-1245], for which the pIC50 was 5.62 in data set [6]; 5.22 in data set [7] (Table 1, SRB, 72-hr incubation); 5.47 in data set [8] (Table 1, XTT, 72-hr incubation).
With `O=C(CN1CCOCC1)Nc1cccc(NC(=O)Nc2ccc(N(CCCl)CCCl)cc2)c1` [BO-2182], the pIC50 in data set [1] was 4.45; in data set [2], 4.71; in data set [3] it was 4.58; in data set [4], 5.41; in [5] (setting [11]), 4.89.
`O=C(CN1CCCCC1)Nc1cccc(NC(=O)Nc2ccc(N(CCCl)CCCl)cc2)c1` [BO-2184]: the pIC50 was 5.00 in [1]; 5.25 in [2]; 5.07 in data set [3]; 5.87 in data set [4]; 5.12 in data set [5] (setting [11]).
As for `O=C(CCN1CCC(N2CCCCC2)CC1)Nc1cccc(NC(=O)Nc2ccc(N(CCCl)CCCl)cc2)c1` [BO-2191, 3-([1,4′-bipiperidin]-1′-yl)-N-(3-(3-(4-(bis(2-chloroethyl)amino)phenyl)ureido)phenyl)propanamide hydrochloride], the pIC50 is 4.66 in [1]; 4.85 in [2]; 4.96 in data set [3]; 5.79 in data set [4]; 4.81 in data set [5] (setting [11]).
For `CCN(CC)CCC(=O)Nc1ccc(NC(=O)Nc2ccc(N(CCCl)CCCl)cc2)cc1` [BO-2073, N-(4-(3-(4-(Bis(2-chloroethyl)amino)phenyl)ureido)-phenyl)-3-(diethylamino)-propanamide], in that order: 5.61, 5.74, 4.99, 6.52 and 5.68.
With `CN(C)CC(=O)Nc1cccc(NC(=O)Nc2ccc(N(CCCl)CCCl)cc2)c1` [BO-2189, N-(3-(3-(4-(bis(2-chloroethyl)amino)phenyl)ureido)phenyl)-2-(dimethyl-amino)acetamide], the pIC50 is 4.72 in [1]; 5.06 in data set [2]; 4.97 in [3]; 6.11 in data set [4]; 5.02 in data set [5] (setting [11]).
In the case of `O=C(CN1CCCC1)Nc1cccc(NC(=O)Nc2ccc(N(CCCl)CCCl)cc2)c1` [BO-2151, N-(3-(3-(4-(bis(2-chloroethyl)amino)phenyl)ureido)-phenyl)-2-(pyrrolidin-1-yl)acetamide], the pIC50 was 4.89 in [1]; 5.18 in [2]; 5.03 in data set [3]; 5.47 in data set [4]; 5.27 in data set [5] (setting [11]).
`O=C(CCN1CCCC1)Nc1cccc(NC(=O)Nc2ccc(N(CCCl)CCCl)cc2)c1` [BO-2121]: the pIC50 was 4.99 in data set [1]; 5.01 in data set [2]; 5.36 in [3]; 6.17 in [4]; 5.29 in [5] (setting [11]).
As to `Cc1cc(NC(=O)Nc2ccc(N(CCCl)CCCl)cc2)c2ccccc2n1` [BO-1038, 1-{4-[bis(2-chloroethyl)amino]phenyl}-3-(2-methylquinolin-4-yl)urea], the “Therapeutic effect: complete tumor remission (CR), mice with CR/total and day” value in [9] (treatment from Day 8, dose and schedule per compound as in Table 3 (30-150 mg/kg)) was “achieved complete tumor remission and 3/3 CR on D16, 16, 16”. Besides, the “Maximal body-weight loss (%)” value in data set [9] (setting [12]) is on record as 4%. The “Therapeutic effect: tumor relapse” value in [9] (setting [12]) was “No relapse on D70”. Also, the inhibition at 10 µM in [10] was in the range of 40 to 80%. Moreover, the pIC50 in [4] (72 h) is 6.72; in [5] (HCT-116, 72 h, read-out: Cytotoxicity IC50, HCT-116), 5.85; in [7] (Homo sapiens, 72 h), 6.47; in [8] (Homo sapiens, CCRF-CEM, 72 h), 6.37.
As for `O=C(CCN1CCCC1)Nc1ccc(NC(=O)Nc2ccc(N(CCCl)CCCl)cc2)cc1` [BO-2075], the pIC50 in data set [1] is 5.46; in data set [2] it was 5.99; in [3] it was 5.19; in data set [4], 6.55; in data set [5] (setting [11]) it was 5.83.
In the case of `O=C(CN1CCOCC1)Nc1ccc(NC(=O)Nc2ccc(N(CCCl)CCCl)cc2)cc1` [BO-2096], the pIC50 was 4.80 in data set [1]; 5.32 in data set [2]; 4.73 in data set [3]; 5.95 in [4]; 5.18 in data set [5] (setting [11]).
Turning to `O=C(CN1CCC(N2CCCCC2)CC1)Nc1cccc(NC(=O)Nc2ccc(N(CCCl)CCCl)cc2)c1` [BO-2188], the pIC50 in data set [1] was 4.59; in data set [2] it was 4.91; in data set [3], 4.89; in [4], 4.52; in data set [5] (setting [11]), 5.21.
For `O=C(CCN1CCOCC1)Nc1cccc(NC(=O)Nc2ccc(N(CCCl)CCCl)cc2)c1` [BO-2148], the pIC50 is 4.45 in data set [1]; 4.41 in data set [2]; 4.80 in [3]; 5.51 in data set [4]; 4.78 in data set [5] (setting [11]).
Take `O=C(CN1CCCCC1)Nc1ccc(NC(=O)Nc2ccc(N(CCCl)CCCl)cc2)cc1` [BO-2092, N-(4-(3-(4-(bis(2-chloroethyl)amino)phenyl)ureido)-phenyl)-2-(piperidin-1-yl)-acetamide]: the pIC50 was 5.65 in data set [1]; 5.98 in data set [2]; 5.60 in [3]; 6.51 in [4]; 5.82 in [5] (setting [11]).
As to `CCN(CC)CCC(=O)Nc1cccc(NC(=O)Nc2ccc(N(CCCl)CCCl)cc2)c1` [BO-2120], the pIC50 in data set [1] is 4.89; in data set [2] it was 5.17; in data set [3] it was 5.24; in data set [4], 6.07; in data set [5] (setting [11]) it was 5.49.
As to `O=C(CCN1CCC(N2CCCCC2)CC1)Nc1ccc(NC(=O)Nc2ccc(N(CCCl)CCCl)cc2)cc1` [BO-2118], the pIC50 in data set [1] was 4.52; in data set [2] it was 4.84; in data set [3] it was 4.44; in [4], 6.14; in [5] (setting [11]), 4.96.
